From US5079257A, “Indoloquinone compounds” (priority 1986, dated 1992)
Values after ≈ are worked out from the molar mass of the structure shown. Like-named read-outs stand apart in the source and are kept apart here.

Tests used:
[1] = Half-wave reduction potentials / polarography (University of Utrecht); assay type: physicochemical; settings: for E1/2, halve wave reduction potential: Table IA, only the first (quinone) reduction potential
Excerpt: *The halve wave reduction potentials (E1/2) have been determined at the
Pharmaceutical Laboratory of University of Utrecht. Only the first
(quinone) reduction potential has been given.
Additional evidence for the occurrence of a bioreductive activation mechanism during the cytotoxic action of indoloquinones (II) was obtained via electrochemical studies, which have been carried out at the Pharmaceutical Laboratory of the University of Utrecht. […]

[2] = system: L1210 cells; test: L1210 activity (bioliquid assay), cytotoxicity; assay type: cell-based; settings: for IC50: Mus musculus, read-out: ID-50 L1210; for ID-50 L1210: 2880 min
Excerpt: The indoloquinones II (formula II) have been tested in respect of their cytotoxic activity against L1210 cells and R-1 cells (Rhabdomyosarcoma Cells) in a bioliquid assay at the department of oncology of the Free University of Amsterdam (Table I). In addition to this seven compounds (E.O. 1, E.O. 2, E.O. 4, E.O. 7, E.O. 9, E.O. 16 and E.O. 17) have been tested on L1210 activity in a clonogenic assay at TNO, Rijswijk. Further, the lowest active doses of the compounds E.O. 1, E.O. 2, E.O. 4 and E.O. 9 have been determined at TNO Rijswijk, according to the method described by Lamberts et al. [Oncology, 40, 301 (1983)]. (Table II). Eight indoloquinones (E.O. 1, E.O. 2, E.O. 4, E.O. 4A, E.O. 8, E.O. 9, E.O. 33 and E.O. 35) have been tested in a panel of five human tumour lines (TNO Rijswijk; Table III). From the latter group three indoloquinones (E.O. 1, E.O. 4 and E.O. 9) have been selected for a cytotoxicity study, involving five slowly growing human tumour lines (University of Freiburg; Table IV).
For this purpose, L1210 cells were grown, as suspension, in Falcon multi-wells (growth area: 9.6 cm^2) using RPMI supplemented with 15% FCS and 2-mercapto-ethanol (60 μmol) as medium. In this medium, the cells were continuously incubated with the compound to be tested at 37° C. in an atmosphere of 5% CO2 in humidified air for 48 hours. Thereupon they were counted on a Sysmex microcell counter (CC110).
(§1) The in vitro L1210 and R-1 activities of the indoloquinones (formula III), were also determined in the bioliquid assays as described above.

[3] = system: R-1 cells (Rhabdomyosarcoma Cells); test: R-1 activity (bioliquid assay), cytotoxicity; assay type: cell-based; settings: Rhabdomyosarcoma cell, read-out: ID-50 R-1
Excerpt: The indoloquinones II (formula II) have been tested in respect of their cytotoxic activity against L1210 cells and R-1 cells (Rhabdomyosarcoma Cells) in a bioliquid assay at the department of oncology of the Free University of Amsterdam (Table I). […] (Table II). Eight indoloquinones (E.O. 1, E.O. 2, E.O. 4, E.O. 4A, E.O. 8, E.O. 9, E.O. 33 and E.O. 35) have been tested in a panel of five human tumour lines (TNO Rijswijk; Table III).
For the determination of the R-1 activity, Rhabdomyosarcoma cells were brought into Falcon multiwells (growth area: 9.6 cm^2) (~10^6 cells per dish) containing 3 ml of Dulbecco's medium supplemented with 10% Foeto Calf Serum (FCS). […] Thereupon the drug solution was removed and the cells were covered with fresh medium. After 48 hours the cells were trypsinized and counted on a Sysmex microcell counter (CC110).
as §1

[4] = system: WiDr cells; colon tumour; test: In vitro panel of human tumour lines (TNO): WiDr; assay type: cell-based; settings: about 72 hours; also: key: -: no inhibition of cell growth; +: total cell-kill
Experimental: (§2) Compounds E.O. 1, E.O. 2, E.O. 4, E.O. 4A, E.O. 8, E.O. 9, […], E.O. 33, and E.O. 35 were tested for their activity against five human tumour cell lines at the Radiobiological Institute TNO Rijswijk.
(§3) The new in vitro prescreen uses human tumour clones; it was set up by Dr. P. Lelieveld at TNO Rijswijk and comprises testing compounds in a bioliquid assay for their cytostatic activity against the following five human tumour lines:
(§4) After a continuous exposure to the drugs to be tested and to Adriamycin in `24 well tissue culture clusters, type 3524 (Costar)`, the remaining cells are fixed and stained. Using increasing drug concentrations the inhibiting concentration can be estimated qualitatively.
(§5) Cells: the human tumour cells are maintained in Dulbecco's medium supplemented with 10 percent foetal calf serum.
(§6) M and W cell suspensions: 10^5 cells/ml.
(§7) The cells were grafted into 16 mm wells for 48 hours (0.5 ml cell suspension per well was used).
(§8) Drugs: the compound to be tested was dissolved in appropriate concentrations in a mixture of Hepes-buffered Hanks' balanced salt solution and ethanol. The drug solutions (0.05 ml) were added to the different wells. The final ethanol concentration in each well was less than one percent.
(§9) The cells were continuously incubated with the compound under test at 37° in an atmosphere of 10 percent CO2 in humidified air for about 72 hours.
(§10) Determination of the inhibiting dose: the cells were fixed and stained with a solution of crystal violet in methanol/formaldehyde.

[5] = system: T 24 cells; bladder carcinoma; test: In vitro panel of human tumour lines (TNO): T 24; assay type: cell-based; settings: about 72 hours; also: key: -: no inhibition of cell growth; +: total cell-kill
Experimental: as §2, §3, §4, §5
(§11) A, T and Z cell suspensions: 5·10^4 cells/ml
as §7, §8, §9, §10

[6] = system: IgR37 cells melanoma; test: In vitro panel of human tumour lines (TNO): IgR-37; assay type: cell-based; settings: about 72 hours; also: key: -: no inhibition of cell growth; +: total cell-kill
Experimental: as §2, §3, §4, §5, §11, §7, §8, §9, §10

[7] = system: MCF7 breast cancer cells; test: In vitro panel of human tumour lines (TNO): MCF-7; assay type: cell-based; settings: about 72 hours; also: key: -: no inhibition of cell growth; +: total cell-kill
Experimental: as §2, §3, §4, §5, §6, §7, §8, §9, §10

[8] = system: A 204 cells; rhabdomyosarcoma; test: In vitro panel of human tumour lines (TNO): A 204; assay type: cell-based; settings: about 72 hours; also: key: -: no inhibition of cell growth; +: total cell-kill
Experimental: as §2, §3, §4, §5, §11, §7, §8, §9, §10

[9] = L1210, 48 h, Table IA, para-indoloquinone diesters
[10] = Table IA, para-indoloquinone diesters
[11] = L1210, Table I, bioliquid assay, 48 hours

COC(=O)/C=C/c1c(C(=O)OC)c2c(n1C)C(=O)C=C(N1CCOCC1)C2=O [E.O. 55, Methyl 3-methoxycarbonyl-1-methyl-5-morpholino-2-[1H-indole-4,7-dione]acrylate]
E1/2, halve wave reduction potential [1]: -240 mV | IC50 [2, 9]: 1.4 µg/mL (≈ 3.6 µM) | IC50 [3, 10]: 8.9 µg/mL (≈ 22.9 µM)

COC(=O)/C=C/c1[nH]c2c(c1C(=O)OC)C(=O)C(OC)=CC2=O [E.O. 29, Methyl 5-methoxy-3-methoxycarbonyl-2-[1H-indole-4,7-dione]acrylate]
E1/2, halve wave reduction potential [1]: -211 mV | IC50 [2, 9]: 2.2 µg/mL (≈ 6.89 µM) | IC50 [3, 10]: 4.9 µg/mL (≈ 15.3 µM)

COC(=O)/C=C/c1c(C(=O)OC)c2c(n1C)C(=O)C=C(OC)C2=O [E.O. 14, Methyl 5-methoxy-3-methoxycarbonyl-1-methyl-2-[1H-indole-4,7-dione]acrylate]
E1/2, halve wave reduction potential [1]: -243 mV | IC50 [2, 9]: 0.8 µg/mL (≈ 2.4 µM) | IC50 [3, 10]: > 10 µg/mL

COC(=O)/C=C/c1c(C(=O)OC)c2c(n1C)C(=O)C=C(NCC(O)CO)C2=O (centres unmarked) [E.O. 23, Methyl 5-(2,3-dihydroxypropyl-1-amino)-3-methoxycarbonyl-1-methyl-2-[1H-indole-4,7-dione]acrylate]
E1/2, halve wave reduction potential [1]: -343 mV | IC50 [2, 9]: > 10 µg/mL | IC50 [3, 10]: > 10 µg/mL

CCC1(O)CC2CN(CCc3c([nH]c4ccccc34)C(C(=O)OC)(c3cc4c(cc3OC)N(C=O)C3C(O)(C(=O)OC)C(OC(C)=O)C5(CC)C=CCN6CCC43C65)C2)C1 (centres unmarked) [Vincrist., reference compound]
in vitro activity score, WiDr ([4]; 0.01 μg/ml): + | in vitro activity score, WiDr ([4]; 0.1 μg/ml): + | in vitro activity score, T 24 ([5]; 0.01 μg/ml): - | in vitro activity score, T 24 ([5]; 0.1 μg/ml): + | in vitro activity score, IgR-37 ([6]; 0.01 μg/ml): + | in vitro activity score, IgR-37 ([6]; 0.1 μg/ml): +

CC(=O)OC/C=C/c1c(COC(C)=O)c2c(n1C)C(=O)C=C(NCC(O)CO)C2=O (stereo not drawn) [E.O. 6, 3-Acetoxymethyl-5-(2,3-dihydroxypropyl-1-amino)-1-methyl-2-[1H-indole-4,7-dione]prop-β-en-α-yl acetate]
direct current polarogram ([1]; DC-polarography): two or more reduction waves | half-wave potential E1.2, wave I ([1]; pH = 8 vs Ag/AgCl): -515 mV | half-wave potential E1.2, wave III ([1]; pH = 8 vs Ag/AgCl): -600 mV | half-wave potential E1.2, wave IV ([1]; pH = 8 vs Ag/AgCl): -985 mV | IC50 [2, 11]: > 10 µg/mL | ID-50 L1210 ([2]; Table VI): > 10 µg/mL | IC50 ([3]; Table I, bioliquid assay): > 10 µg/mL | IC50 ([3]; Table VI): > 10 µg/mL

N.N.[Cl][Pt][Cl] [Cisplatin, reference compound]
in vitro activity score, WiDr ([4]; 0.01 μg/ml): - | in vitro activity score, WiDr ([4]; 0.1 μg/ml): - | in vitro activity score, WiDr ([4]; 1.0 μg/ml): - | in vitro activity score, WiDr ([4]; 10 μg/ml): + | in vitro activity score, T 24 ([5]; 0.01 μg/ml): - | in vitro activity score, T 24 ([5]; 0.1 μg/ml): - | in vitro activity score, T 24 ([5]; 10 μg/ml): + | in vitro activity score, MCF-7 ([7]; 0.01 μg/ml): - | in vitro activity score, MCF-7 ([7]; 0.1 μg/ml): - | in vitro activity score, MCF-7 ([7]; 1.0 μg/ml): - | in vitro activity score, IgR-37 ([6]; 0.01 μg/ml): - | in vitro activity score, IgR-37 ([6]; 0.1 μg/ml): - | in vitro activity score, IgR-37 ([6]; 10 μg/ml): + | in vitro activity score, A 204 ([8]; 0.01 μg/ml): - | in vitro activity score, A 204 ([8]; 0.1 μg/ml): - | in vitro activity score, A 204 ([8]; 10 μg/ml): +

CCC1(O)CC2CN(CCc3c([nH]c4ccccc34)C(C(=O)OC)(c3cc4c(cc3OC)N(C)C3C(O)(C(=O)OC)C(OC(C)=O)C5(CC)C=CCN6CCC43C65)C2)C1 (centres unmarked) [Vinblast., reference compound]
in vitro activity score, WiDr ([4]; 0.01 μg/ml): + | in vitro activity score, WiDr ([4]; 0.1 μg/ml): + | in vitro activity score, WiDr ([4]; 1.0 μg/ml): + | in vitro activity score, WiDr ([4]; 10 μg/ml): + | in vitro activity score, T 24 ([5]; 0.1 μg/ml): + | in vitro activity score, MCF-7 ([7]; 1.0 μg/ml): + | in vitro activity score, MCF-7 ([7]; 10 μg/ml): + | in vitro activity score, IgR-37 ([6]; 0.01 μg/ml): + | in vitro activity score, IgR-37 ([6]; 0.1 μg/ml): +

COC1=CC(=O)c2c(c(COC(=O)c3ccccc3)c(/C=C/COC(=O)c3ccccc3)n2C)C1=O [E.O. 36, 3-Benzoxymethyl-5-methoxy-1-methyl-2-[1H-indole-4,7-dione]prop-β-en-α-yl benzoate]
IC50 [2, 11]: 0.7 µg/mL (≈ 1.44 µM) | IC50 ([3]; Table I, bioliquid assay): 2.6 µg/mL (≈ 5.36 µM)

CC(=O)OC/C=C/c1c(COC(C)=O)c2c(n1C)C(=O)C=C(NCCO)C2=O [E.O. 5, 3-Acetoxymethyl-5-(2-hydroxyethyl-1-amino)-1-methyl-2-[1H-indole-4,7-dione]prop-β-en-αyl acetate]
IC50 [2, 11]: > 10 µg/mL | ID-50 L1210 ([2]; Table VI): > 10 µg/mL | IC50 ([3]; Table I, bioliquid assay): > 10 µg/mL | IC50 ([3]; Table VI): > 10 µg/mL

COC1=CC(=O)c2c(c(COC(=O)Nc3ccccc3)c(/C=C/COC(=O)Nc3ccccc3)n2C)C1=O [E.O. 38, 5-Methoxy-1-methyl-3-[N-phenylcarbamoyloxymethyl]-2-[1H-indole-4,7-dione]prop-β-en-α-yl N-phenylcarbamate]
IC50 [2, 11]: > 10 µg/mL | ID-50 L1210 ([2]; Table VII): > 10 µg/mL | IC50 ([3]; Table I, bioliquid assay): 8.5 µg/mL (≈ 16.5 µM)

COC1=C(C)C(=O)c2c(c(COC(C)=O)c(/C=C/COC(C)=O)n2C)C1=O [E.O. 33, 3-Acetoxymethyl-1,6-dimethyl-5-methoxy-2-[1H-indole-4,7-dione]prop-β-en-α-yl acetate]
in vitro activity score, WiDr ([4]; 0.01 μg/ml): - | in vitro activity score, WiDr ([4]; 0.1 μg/ml): - | in vitro activity score, WiDr ([4]; 1.0 μg/ml): - | IC50 [2, 11]: 3.6 µg/mL | in vitro activity score, T 24 ([5]; 0.01 μg/ml): - | in vitro activity score, T 24 ([5]; 0.1 μg/ml): - | in vitro activity score, T 24 ([5]; 1.0 μg/ml): - | in vitro activity score, T 24 ([5]; 10 μg/ml): + | in vitro activity score, MCF-7 ([7]; 0.01 μg/ml): - | in vitro activity score, MCF-7 ([7]; 0.1 μg/ml): - | in vitro activity score, MCF-7 ([7]; 1.0 μg/ml): - | in vitro activity score, IgR-37 ([6]; 0.01 μg/ml): - | in vitro activity score, IgR-37 ([6]; 0.1 μg/ml): - | in vitro activity score, IgR-37 ([6]; 1.0 μg/ml): - | in vitro activity score, IgR-37 ([6]; 10 μg/ml): + | in vitro activity score, A 204 ([8]; 0.01 μg/ml): - | in vitro activity score, A 204 ([8]; 0.1 μg/ml): - | in vitro activity score, A 204 ([8]; 1.0 μg/ml): - | in vitro activity score, A 204 ([8]; 10 μg/ml): + | IC50 ([3]; Table I, bioliquid assay): 2.2 µg/mL
